Measurements as given in US4963553A, “4-[(substituted) alkylcarbonyl]-4,5-dihydro- and -4,5,6,7-tetrahydro-7-[(substituted)phenyl]pyrazolo[1,5-a]pyrimidines” (American Cyanamid Co., priority 1988, dated 1990).
Structures can show the parent of a compound that is named as a salt.

Tests used:
[1] = system: Brain-Specific Receptors of Rats (3H-benzodiazepine binding); assay: Inhibition of the binding of 3H-benzodiazepine to brain-specific receptors of rats; set-up: species or system rat (Wistar strain, whole cortex); conditions: rat cortex P2 fraction, 3H-diazepam 1.5 nM or 3H-flunitrazepam 1.0 nM
Excerpt: Another test utilized for the determination of anxiolytic activity is the measurement of the ability of a test compound to inhibit the binding of tritiated benzodiazepines to brain-specific receptors of mammals. A modification of the method described by R. F. Squires, et al., Nature, 266 (21), 732 (Apr., 1977) and H. Mohler, et al., Science, 198, 849 (1977) was employed. […] The test compounds were solubilized in dimethylformamide, acetic acid, ethanol or hydrochloric acid. […] (1) resuspended in twice the original volume in hypotonic 50 mM Tris.HCl (pH 7.4), or (2) resuspended in one-half the original volume in hypotonic 10 mM Tris.HCl (pH 7.4) and frozen (-20° C.) until time. of use. Frozen P2 preparations were thawed and resuspended in four times the original homogenizing volume at time of assay. […] Incubation for 30 minutes proceeded in ice and was terminated by filtration, under vacuum, through glass fiber filters. The filters were washed twice with 5 ml of ice-cold 50 mM Tris.HCl (pH 7.4) and placed in scintillation vials. After drying at 50°-60° C. for 30 minutes, 10 ml of diluent was added and the radioactivity determined in a scintillation counter. Inhibition of binding was calculated by the difference between total binding and binding in the presence of test compound, divided by the total binding, X 100.

[2] = target: T1, human platelet membranes (3H-imipramine receptor) (Homo sapiens, UniProt P31645); assay: 3H-imipramine binding to human platelet membranes
T1 construct: Fresh human platelet concentrates (less than 48 hours old) were obtained from the New York Blood Center; tissue New York Blood Center; host or cells: human blood platelets, membranes
Method: The activity of the compounds of the invention as antidepressant agents was further verified# in the following test which measures the ability of a test compound to inhibit 3H-imipramine binding to human platelet membranes.
Platelet membranes were obtained using the procedure described by Wennogle, L. et al., Pharmac. Biochem. Behav., 15. 975 (1981). Fresh human platelet concentrates (less than 48 hours old) were obtained from the New York Blood Center. These concentrates were prepared in a citrate-dextrose anticoagulant using standard techniques. Platelets were washed twice by centrifugation (2500×G, 10 minutes) in 50 volumes of an antiprotease buffer containing 0.005M Tris potassium chloride, 0.12M sodium chloride, 0.05M Tris pH 7.5, 0.025 Units/ml aprotinin, 0.05 μg/m pepstatin, 2×10^-5 bacitracin, 3 mM ethylenediaminetetraacetic acid and 1.0 mM ethyleneglycol-bis (β-aminoethylether)N,N'-tetra-acetic acid. […] All procedures were conducted at 0° C. using plastic laboratory-ware throughout the platelet membrane preparation. Platelets were resuspended in 20 volumes of buffer and sonicated 3 times using 10 second bursts of a Branson sonifier (cell disrupter 350) at setting 6 (standard 3/4 inch horn), keeping the sample on ice throughout the procedure. Platelet membranes were then washed twice at 18,000×G for 20 minutes with 50 volumes of the antiprotease buffer and resuspended to 3.0 mg. protein/ml using the Bradford protein analysis with bovine gamma globulin as standard. Membranes were used immediately or stored frozen in liquid nitrogen.
The displacement of 3H-imipramine binding to human platelet membranes was performed essentially as described by Paul, S. M., et al., Life Sci., 953 (1980) with the following modifications. Membranes (0.3 mg protein) were suspended in antiprotease buffer with both […] 3H-imipramine (New England Nuclear) and displacing drug or buffer in a total volume of 250 #1 in glass test tubes. Samples were incubated for 90 minutes at 0° C., then diluted to 5 ml in 0.12M sodium chloride, 0.005M potassium chloride, 0.05M Tris pH 7.5 (wash buffer) and immediately filtered through GF/B Whatman Filters and washed twice with 5 ml of wash buffer. Filters were counted in a liquid scintillation counter after addition of Beckman HP Scintillant.
Non-specific binding of 3H-imipramine was defined as that fraction (generally 35%) of radioactivity that was not displaced by 10 μM desmethylimipramine. Specific binding was determined by subtraction of this non-specific level from values for total 3H-imipramine binding which were measured by incubating 3H-imipramine in the absence of displacing drug. Compounds were tested in duplicate test tubes at a concentration of 10 μM. Compounds which inhibited binding by more than 50% were considered to be active.

[3] = system: Spontaneously Hypertensive Rats; assay: Hypotensive activity: mean arterial blood pressure in spontaneously hypertensive rats; format: in vivo, rat (Okamoto strain, male); conditions: SHR, gavage, 100 mg/kg or less, two doses 24 h apart, measured at 28 hours; average MABP of rats used 160±1.5 mm
Method: The novel compounds of the invention are active hypotensive agents at nontoxic doses when administered to mammals. These compounds were tested for hypotensive activity by the method of P. S. Chan and D. W. Poorvin, Clinical and Experimental Hypertension, (6), 817-830 (1979). Male, 16 week old, spontaneously hypertensive rats of the Okamoto strain (Taconic Farms, Germantown, N.Y.) having an average means arterial blood pressure of 160±1.5 mm of mercury are used in the test. A rat is dosed by gavage with a test compound, suspended in 2% pre-boiled starch at a concentration of 50 mg/ml, at a dose of 100 mg/kg of body weight or less, with 0.9% sodium chloride loading at a dose of 25 ml/kg of body weight. A second identical dose of the test compound, without sodium chloride loading is given 24 hours later. At 28 hours after the initial dose the mean arterial blood pressure is measured by the method of Chan and Poorvin vide supra.

[4] = system: mice (hypoxic environment); assay: Hypoxic survival test; format: in vivo, mouse (Royal Hart); conditions: Mus musculus, ip, 5 min, 100 mg/kg, intraperitoneal, 10% oxygen, 5 minutes; read-out: % Survivors
Method in brief: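 Groups of 20 Royal Hart mice (6 weeks old) dosed i.p. with compound in saline at 1–200 mg/kg, 30 minutes before exposure to 10% oxygen/90% carbon dioxide; survival scored after 5 minutes. Saline and physostigmine (0.125 mg/kg i.p.) groups run in parallel.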

T1 sequence (P31645 whole entry): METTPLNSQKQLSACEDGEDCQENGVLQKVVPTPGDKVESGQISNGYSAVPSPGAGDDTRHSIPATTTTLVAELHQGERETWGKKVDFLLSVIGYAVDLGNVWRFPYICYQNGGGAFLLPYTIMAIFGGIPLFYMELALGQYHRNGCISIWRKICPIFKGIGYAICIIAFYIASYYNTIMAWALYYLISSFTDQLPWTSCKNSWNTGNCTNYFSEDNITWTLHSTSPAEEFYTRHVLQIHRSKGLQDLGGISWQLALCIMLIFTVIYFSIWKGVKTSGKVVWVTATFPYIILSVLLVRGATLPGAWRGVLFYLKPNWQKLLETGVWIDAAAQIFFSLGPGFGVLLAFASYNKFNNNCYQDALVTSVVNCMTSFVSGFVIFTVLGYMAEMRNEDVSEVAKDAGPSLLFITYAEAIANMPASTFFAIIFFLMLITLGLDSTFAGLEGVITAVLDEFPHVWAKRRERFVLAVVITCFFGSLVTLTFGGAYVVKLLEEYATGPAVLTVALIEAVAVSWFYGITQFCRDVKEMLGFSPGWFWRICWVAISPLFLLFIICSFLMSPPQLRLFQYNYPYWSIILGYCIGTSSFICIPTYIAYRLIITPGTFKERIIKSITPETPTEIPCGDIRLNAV

Row | Compound | % Inhibition (3H-benzodiazepine binding) [1] [%] | also measured
1 | CCCCCCN(CCCCCC)CC(=O)N1CC=C(c2cccc(C(F)(F)F)c2)n2ncc(C#N)c21 [4-[(Dihexylamino)acetyl]-4,5-dihydro-7-[3-(trifluoromethyl)phenyl]pyrazolo[1,5-a]pyrimidine-3-carbonitrile] | 24 | –
2 | CN1CCN(CC(=O)N2CC=C(c3cccc(C(F)(F)F)c3)n3ncc(C#N)c32)CC1 [Example 16, 4,5-Dihydro-4-[(4-methyl-1-piperazinyl)acetyl]-7-[3-(trifluoromethyl)phenyl]pyrazolo[1,5-a]pyrimidine-3-carbonitrile] | 41 | –
3 | N#Cc1cnn2c1N(C(=O)CCN1CCN(Cc3ccccc3)CC1)CC=C2c1cccc(C(F)(F)F)c1 [Example 27, 4,5-Dihydro-4-[1-oxo-3-[4-(phenylmethyl)-1-piperazinyl]propyl]-7-[3-(trifluoromethyl)phenyl]pyrazolo[1,5-a]pyrimidine-3-carbonitrile] | – | inhibition at 10 µM [2]: 80%
4 | CN(C)CCCN1CCN(CC(=O)N2CC=C(c3cccc(C(F)(F)F)c3)n3ncc(C#N)c32)CC1 [Example 33, 4-[[4-[3-(Dimethylamino)propyl]-1-piperazinyl]acetyl]-4,5-dihydro-7-[3-(trifluoromethyl)phenyl]pyrazolo[1,5-a]pyrimidine-3-carbonitrile] | – | inhibition at 10 µM [2]: 89%
5 | N#Cc1cnn2c1N(C(=O)CN1CCN(CC(=O)N3CCOCC3)CC1)CC=C2c1cccc(C(F)(F)F)c1 [Example 36, 4,5-Dihydro-4-[[4-[2-(4-morpholinyl)-2-oxoethyl]-1-piperazinyl]acetyl]-7-[3-(trifluoromethyl)phenyl]pyrazolo[1,5-a]pyrimidine-3-carbonitrile] | 41 | MABP/mmHg (mean arterial blood pressure) [3]: 129 mmHg
6 | CC(C)NC(=O)CN1CCN(CC(=O)N2CC=C(c3cccc(C(F)(F)F)c3)n3ncc(C#N)c32)CC1 [Example 37] | 41 | MABP/mmHg (mean arterial blood pressure) [3]: 129 mmHg
7 | N#Cc1cnn2c1N(C(=O)CN1CCN(CC(=O)N3CCCC3)CC1)CC=C2c1cccc(C(F)(F)F)c1 [Example 38, 4,5-Dihydro-4-[[4-[2-oxo-2-(1-pyrrolidinyl)ethyl]-1-piperazinyl]acetyl]-7-[3-(trifluoromethyl)phenyl]pyrazolo[1,5-a]pyrimidine-3-carbonitrile] | 33 | –
8 | N#Cc1cnn2c1N(C(=O)CN1CCN(Cc3ccc(Cl)cc3)CC1)CC=C2c1cccc(C(F)(F)F)c1 [Example 39, 4-[[4-[(4-Chlorophenyl)methyl]-1-piperazinyl]acetyl]-7-[3-(trifluoromethyl)phenyl]pyrazolo[1,5-a]pyrimidine-3-carbonitrile] | – | inhibition at 10 µM [2]: 84%
9 | CCOC(=O)N1CCN(CC(=O)N2CC=C(c3cccc(C(F)(F)F)c3)n3ncc(C#N)c32)CC1 [Example 42] | 45 | –
10 | N#Cc1cnn2c1N(C(=O)CN1CCN(Cc3ccccc3)CC1)CCC2c1cccc(C(F)(F)F)c1 (centres unmarked) [Example 46, 4,5,6,7-Tetrahydro-4-[[4-(phenylmethyl)-1-piperazinyl]acetyl]-7-[3-(trifluoromethyl)phenyl]pyrazolo[1,5-a]pyrimidine-3-carbonitrile] | 14 | responders at 100 mg/kg [4]: 80%
11 | N#Cc1cnn2c1N(C(=O)CCN1CCN(Cc3ccccc3)CC1)CC=C2c1cc(Cl)ccc1Cl [Example 71, 7-(2,5-Dichlorophenyl)-4,5-dihydro-4-[1-oxo-3-[4-(phenylmethyl)-1-piperazinyl]propyl]pyrazolo[1,5-a]pyrimidine-3-carbonitrile] | – | inhibition at 10 µM [2]: 79%
12 | Cl.N#Cc1cnn2c1N(C(=O)CN1CCN(c3ccc(Cl)c(Cl)c3)CC1)CC=C2c1cccc(C(F)(F)F)c1 [Example 82, 4-[[4-(3,4-Dichlorophenyl)-1-piperazinyl]acetyl]-4,5-dihydro-7-[3-(trifluoromethyl)phenyl]pyrazolo[1,5-a]pyrimidine-3-carbonitrile, hydrochloride] | 12 | –
13 | Cl.Cl.N#Cc1cnn2c1N(C(=O)CN1CCN(Cc3ccccc3)CC1)CCC2c1cccc(C(F)(F)F)c1 (centres unmarked) [Example 89, 4,5,6,7-Tetrahydro-4-[[4-(phenylmethyl)-1-piperazinyl]acetyl]-7-[3-(trifluoromethyl)phenyl]pyrazolo[1,5-a]pyrimidine-3-carbonitrile, dihydrochloride] | 12 | –

Further lines, with some results ahead:

Row | % Inhibition (3H-benzodiazepine binding) [1] [%] | Compound | also measured
14 | 14 | N#Cc1cnn2c1N(C(=O)CN1CCN(CCC3CCCCC3)CC1)CC=C2c1cccc(C(F)(F)F)c1 [Example 86, 4-[[4-(2-(Cyclohexylethyl)-1-piperazinyl]acetyl]-4,5-dihydro-7-[3-(trifluoromethyl)phenyl]pyrazolo[1,5-a]pyrimidine-3-carbonitrile, dihydrochloride] | –
15 | 12 | N#Cc1cnn2c1N(C(=O)CN1CCN(C(=O)c3ccco3)CC1)CC=C2c1cccc(C(F)(F)F)c1 [Example 96, 4-[[4-(2-Furanylcarbonyl)-1-piperazinyl]acetyl]-4.5-dihydro-7-[(3-trifluoromethyl)phenyl]pyrazolo[1,5-a]pyrimidine-3-carbonitrile, hydrochloride] | –
16 | 25 | N#Cc1cnn2c1N(C(=O)CN1CCNCC1)CC=C2c1cccc(C(F)(F)F)c1 [Example 98, 4.5-Dihydro-4-(1-piperazinylacetyl)-7-[3-(trifluoromethyl)phenyl]pyrazolo[1,5-a]pyrimidine-3-carbonitrile] | –
17 | 24 | N#Cc1cnn2c1N(C(=O)CN1CCN(C(=O)Nc3ccccc3)CC1)CC=C2c1cccc(C(F)(F)F)c1 [Example 99, 4-[2-[3-Cyano-7-[3-(trifluoromethyl)phenyl]pyrazolo-[1,5-a]pyrimidin-4(5H)-yl]-2-oxoethyl]-N-phenyl-1-piperazinecarboxamide] | MABP/mmHg (mean arterial blood pressure) [3]: 125 mmHg
18 | 15 | COc1ccc(Cl)cc1NC(=O)CN1CCN(CC(=O)N2CC=C(c3cccc(C(F)(F)F)c3)n3ncc(C#N)c32)CC1 [Example 100, N-(5-Chloro-2-methoxyphenyl)-4-[2-[3-cyano-7-[3-(trifluoromethyl)phenyl]pyrazolo[1.5-a]pyrimidin-4(5H)-yl]-2-oxoethyl]-1-piperazineacetamide] | MABP/mmHg (mean arterial blood pressure) [3]: 139 mmHg
